# From ChEMBL document CHEMBL1133028, “The synthesis and in vitro cytotoxic studies of novel oxa-spermidine derivatives and homologues” (2000)
# Tests used:
# Format in all cases: functional
# [1] = test system: IGROV-1; assay: Compound was evaluated for the growth inhibition of […] ovarian cell lines; conditions: Homo sapiens
# [2] = test system: OVCAR-5; assay: Compound was evaluated for the growth inhibition of OVCAR-5 ovarian cell lines; conditions: Homo sapiens
# [3] = test system: Panel breast (Carcinoma cell lines); assay: (§1) Compound was evaluated for the growth inhibition of cell cultures derived from human breast cancer tumors
# [4] = test system: Panel colon (Carcinoma cell lines); assay: Compound was evaluated for the growth inhibition of cell cultures derived from human colon cancer tumors
# [5] = test system: Panel CNS (Carcinoma cell lines); assay: Compound was evaluated for the growth inhibition of cell cultures derived from human Cns cancer tumors
# [6] = test system: Ovarian cancer cell line; assay: (§2) Compound was evaluated for the growth inhibition of cell cultures derived from human ovarian cancer tumors
# [7] = test system: Lung cancer tumor cell line; assay: Compound was evaluated for the growth inhibition of cell cultures derived from human non small cell lung cancer tumors
# [8] = test system: leukaemia cell line; assay: Compound was evaluated for the growth inhibition of cell cultures derived from human leukemia tumors
# [9] = test system: Melanoma tumor cell line; assay: Compound was evaluated for the growth inhibition of cell cultures derived from human melanoma tumors
# [10] = organism: Homo sapiens; assay: Compound was evaluated for the growth inhibition of cell cultures derived from human prostate cancer tumors
# [11] = test system: Panel renal (Carcinoma cell lines); assay: Compound was evaluated for the growth inhibition of cell cultures derived from human renal cancer tumors
# [12] = test system: Tumor Cell line; assay: Mean values over all human tumor cell lines were determined
# [13] = as §1
# [14] = organism: Homo sapiens; assay: as §2
# [15] = test system: Tumor Cell line; assay: Compound was evaluated for the growth inhibition against panel of human tumor cell lines
# [16] = test system: Tumor Cell line; assay: Compound was evaluated for the growth inhibition of a panel of human tumor cell lines
GI50 [2],GI50 [3],GI50 [4],GI50 [5],GI50 [6],GI50 [7],GI50 [8],GI50 [9],GI50 [11],GI50 [12],GI50 [15],GI50 [16],SMILES,GI50 [1],GI50 [10],GI50 [13],GI50 [14]
,10 µM,9.8 µM,9.6 µM,12.7 µM,11.5 µM,3.9 µM,10.9 µM,16.5 µM,11.2 µM,,,Cc1c(C)c(S(=O)(=O)N(CCCCCN)OCCCN)c(C)c2c1OC(C)(C)CC2,,16.1 µM,,
,23 µM,16.7 µM,16.5 µM,18 µM,22.4 µM,19.5 µM,15.7 µM,17.5 µM,18.3 µM,,,Cc1cc(C)c(S(=O)(=O)N(CCCCCCN)OCCCN)c(C)c1,,15.4 µM,,
,20.2 µM,16.2 µM,16.9 µM,17.9 µM,16.9 µM,15.3 µM,18.2 µM,16.1 µM,15.2 µM,,,Cc1cc(C)c(S(=O)(=O)N(CCCCCN)OCCCN)c(C)c1,,15.7 µM,,
,,,,,,,,,,,> 100 µM,Cc1cc(C)c(S(=O)(=O)N(CCCN)OCCCN)c(C)c1,,,,
,17.8 µM,13.3 µM,18.1 µM,,18.5 µM,11.8 µM,18.1 µM,18.2 µM,16.4 µM,,,Cc1cc(C)c(S(=O)(=O)N(CCCCN)OCCCN)c(C)c1,,14.5 µM,,17.2 µM
,28.4 µM,20.3 µM,18 µM,13.5 µM,15.3 µM,26.8 µM,19.1 µM,20.9 µM,19.6 µM,,,Cc1c(C)c(S(=O)(=O)N(CCCCN)OCCCN)c(C)c2c1OC(C)(C)CC2,,14.5 µM,,
,10.2 µM,7.2 µM,5.6 µM,4.7 µM,6.3 µM,4.1 µM,10.7 µM,11.3 µM,8.5 µM,,,Cc1c(C)c(S(=O)(=O)N(CCCCCCN)OCCCN)c(C)c2c1OC(C)(C)CC2,,16.3 µM,,

# The remaining lines, values behind:
SMILES,GI50 [2],GI50 [3],GI50 [4],GI50 [5],GI50 [6],GI50 [7],GI50 [8],GI50 [9],GI50 [11],GI50 [12],GI50 [15],GI50 [16],GI50 [1],GI50 [10],GI50 [13],GI50 [14]
Cc1c(C)c(S(=O)(=O)N(CCCCN2C(=O)c3ccccc3C2=O)OCCCN2C(=O)c3ccccc3C2=O)c(C)c2c1OC(C)(C)CC2,52.5 µM,,,,,,,,,,,,3.27 µM,,,
Cc1c(C)c(S(=O)(=O)N(CCCCCON)OCCCN)c(C)c2c1OC(C)(C)CC2,,,12.8 µM,14.9 µM,,13.5 µM,6.3 µM,13.7 µM,14.3 µM,12.5 µM,,,,10.6 µM,13.8 µM,12.4 µM
NCCCNOCCCN,,,,,,,,,,,> 100 µM,,,,,
Cc1c(C)c(S(=O)(=O)N(CCCCCCN2C(=O)c3ccccc3C2=O)OCCCN2C(=O)c3ccccc3C2=O)c(C)c2c1OC(C)(C)CC2,52.5 µM,,,,,,,,,,,,3.27 µM,,,
Cc1c(C)c(S(=O)(=O)N(CCCN2C(=O)c3ccccc3C2=O)OCCCN2C(=O)c3ccccc3C2=O)c(C)c2c1OC(C)(C)CC2,52.5 µM,,,,,,,,,,,,3.27 µM,,,
Cc1c(C)c(S(=O)(=O)N(CCCN)OCCCN)c(C)c2c1OC(C)(C)CC2,,15.8 µM,13.8 µM,12.9 µM,12.6 µM,14.2 µM,13 µM,14.8 µM,14.7 µM,14 µM,,,,14 µM,,
Cc1c(C)c(S(=O)(=O)N(CCCCCN2C(=O)c3ccccc3C2=O)OCCCN2C(=O)c3ccccc3C2=O)c(C)c2c1OC(C)(C)CC2,52.5 µM,,,,,,,,,,,,3.27 µM,,,
